These results are taken from patent publication US7163952B2, “Azole compound and medicinal use thereof” (Japan Tobacco Inc., priority 2001, dated 2007).

Structures can show the parent of a compound that is named as a salt.

Broadly, the melting point is the temperature, or range, at which the solid turns liquid.

As for `COc1ccc(OCc2ccc(C(F)(F)F)cc2)c(-c2csc(Nc3ccc(C(=O)O)cc3OCc3ccccc3)n2)c1` [Example 180, 3-benzyloxy-4-(4-(5-methoxy-2-(4-trifluoromethylbenzyloxy)phenyl)-2-thiazolylamino)benzoic acid], the melting point fell in the range of 227 to 230 °C.

As for `CN(Cc1ccc(C(=O)OCC(=O)OC(C)(C)C)cc1)c1nc(-c2ccc(OCc3ccc(C4CCCCC4)cc3)cc2)cs1` [Example 267, tert-butoxycarbonylmethyl 4-((N-(4-(4-(4-cyclohexylbenzyloxy)phenyl)-2-thiazolyl)-N-methylamino)methyl)benzoate], the melting point is 122 to 123 °C.

Consider `CC(C)CN(c1ccc(C(=O)O)cc1)c1nc(-c2ccc(NC(=O)C3CCCCC3)cc2)cs1` [Example 13, 4-(N-(4-(4-(cyclohexanecarbonylamino)phenyl)-2-thiazolyl)-N-isobutylamino)benzoic acid], for which the melting point was in the range of 231 to 232 °C.

The compound `CN(CCC1Cc2ccccc2C1)c1ccc(-c2csc(N(C)Cc3ccc(C(=O)O)cc3)n2)cc1` [Example 223, 4-((N-(4-(4-(N-(2-(2-indanyl)ethyl)-N-methylamino)phenyl)-2-thiazolyl)-N-methylamino)methyl)benzoic acid] displayed a melting point of 174 to 176 °C.

Consider `CN(Cc1ccc(C(=O)O)cc1)c1nc(-c2ccc3[nH]c(-c4ccc(C5CCCCC5)cc4)nc3c2)cs1` [Example 231, 4-((N-(4-(2-(4-cyclohexylphenyl)-1H-benzoimidazol-5-yl)-2-thiazolyl)-N-methylamino)methyl)benzoic acid], for which the melting point amounted to 250 °C.

`CN(c1ccc(C(=O)O)cc1)c1nc(-c2ccc(NCc3ccc(C4CCCCC4)cc3)cc2)cs1` (as salt: hydrochloride) [Example 258, 4-(N-(4-(4-(4-cyclohexylbenzylamino)phenyl)-2-thiazolyl)-N-methylamino)benzoic acid hydrochloride] came in with a melting point of 234 to 236 °C.

In the case of `CN(Cc1ccc(C(=O)O)cc1)c1nc(-c2ccc(N(C)C[C@H]3CC[C@H](c4ccccc4)CC3)cc2)cs1` [Example 213, trans-4-((N-methyl-N-(4-(4-(N-methyl-N-(4-phenylcyclohexylmethyl)amino)phenyl)-2-thiazolyl)amino)methyl)benzoic acid], the melting point fell in the range of 191 to 193 °C.

The compound `O=C(O)c1ccc(N(CCOc2ccccc2)c2nc(-c3cc(Cl)ccc3OCc3ccccc3)cs2)cc1` [Example 153, 4-(N-(4-(2-benzyloxy-5-chlorophenyl)-2-thiazolyl)-N-(2-phenoxyethyl)amino)benzoic acid] came in with a melting point of 152 to 155 °C.

Regarding `CC(C)(c1ccc(C(=O)O)cc1)c1nc(-c2cc(Cl)ccc2OCc2ccccc2)cs1` [Example 149, 4-(1-(4-(2-benzyloxy-5-chlorophenyl)-2-thiazolyl)-1-methylethyl)benzoic acid], the melting point was 152 to 154 °C.

Turning to `CN(Cc1ccc(C2CCCCC2)cc1)c1ccc(-c2csc(N(C)Cc3cccc(C(=O)O)c3)n2)cc1` [Example 204, 3-((N-(4-(4-(N-(4-cyclohexylbenzyl)-N-methylamino)phenyl)-2-thiazolyl)-N-methylamino)methyl)benzoic acid], the melting point was 183 °C (dec.).

Turning to `O=C(O)c1ccc(Nc2nc(-c3cc(Cl)ccc3OCc3ccccc3)cs2)c(OCCC2CCCCC2)c1` [Example 150, 4-(4-(2-benzyloxy-5-chlorophenyl)-2-thiazolylamino)-3-(2-cyclohexylethoxy)benzoic acid], the melting point is 230 °C (dec.).

For `CN(Cc1ccc(C2CCOCC2)cc1)c1ccc(-c2csc(N(C)Cc3ccc(C(=O)O)cc3)n2)cc1` [Example 210, 4-((N-methyl-N-(4-(4-(N-methyl-N-(4-(tetrahydropyran-4-yl)benzyl)amino)phenyl)-2-thiazolyl)amino)methyl)benzoic acid], the melting point lay in the range of 225 to 227 °C.

`CC(C)N(Cc1ccc(C(=O)O)cc1)c1nc(-c2ccc(NS(=O)(=O)c3ccc(C(C)(C)C)cc3)cc2)cs1` [Example 104, 4-((N-(4-(4-(4-tert-butylbenzenesulfonylamino)phenyl)-2-thiazolyl)-N-isopropylamino)methyl)benzoic acid] yielded a melting point of 178 to 180 °C.

In the case of `CCCCN(c1ccc(C(=O)O)cc1)c1nc(-c2cc(Cl)ccc2OCc2ccc(C(F)(F)F)cc2)cs1` [Example 182, 4-(N-butyl-N-(4-(5-chloro-2-(4-trifluoromethylbenzyloxy)phenyl)-2-thiazolyl)amino)benzoic acid], the melting point lay within 216 to 218 °C.

`O=C(O)CN(c1ccc(C(=O)O)cc1)c1nc(-c2ccc(NC(=O)C3CCCCC3)cc2)cs1` [Example 14, 4-(N-carboxymethyl-N-(4-(4-(cyclohexanecarbonylamino)phenyl)-2-thiazolyl)amino)benzoic acid]: the melting point was 210 °C (dec.).

For the compound `O=C(O)c1ccc(CN(CCC2CCCCC2)c2nc(-c3cc(Cl)ccc3OCc3ccccc3)cs2)cc1` [Example 164, 4-((N-(4-(2-benzyloxy-5-chlorophenyl)-2-thiazolyl)-N-(2-cyclohexylethyl)amino)methyl)benzoic acid], the melting point fell in the range of 158 to 160 °C.

Regarding `O=C(O)c1ccc(Nc2nc(-c3ccc(OCc4ccc(-c5ccccc5)cc4)cc3)cs2)cc1` [Example 95, 4-(4-(4-(4-biphenylylmethoxy)phenyl)-2-thiazolylamino)benzoic acid], the melting point was 230 °C (dec.).

For the compound `CN(Cc1ccc(C2CCCCC2)cc1)c1ccc(-c2csc(N(C)Cc3ccc(C(=O)O)cc3)n2)cn1` [Example 226, 4-((N-(4-(6-(N-(4-cyclohexylbenzyl)-N-methylamino)-3-pyridyl)-2-thiazolyl)-N-methylamino)methyl)benzoic acid], the melting point was in the range of 157 to 159 °C.

`CN(Cc1ccc(C(=O)O)cc1)c1nc(-c2ccc(OCc3ccc(C4CCCCC4)cc3)cc2)cs1.CS(=O)(=O)O`: the melting point was 175 °C (dec.).

For `O=C(O)c1cccc(Nc2nc(-c3ccc(NC(=O)c4ccc(C5CCCCC5)cc4)cc3)cs2)c1` [Example 27, 3-(4-(4-(4-cyclohexylbenzoylamino)phenyl)-2-thiazolylamino)benzoic acid], the melting point is 230 °C (dec.).

As to `CN(c1ccc(C(=O)O)cc1)c1nc(-c2ccc(NC(=O)c3ccc(C4CCCCC4)cc3)cc2)cs1` [Example 19, 4-(N-(4-(4-(4-cyclohexylbenzoylamino)phenyl)-2-thiazolyl)-N-methylamino)benzoic acid], the melting point is 250 °C (dec.).

For the compound `CC(C)N(c1ccc(OCC(=O)O)cc1)c1nc(-c2ccc(NC(=O)c3ccc(N4CCCCC4)nc3)cc2)cs1` [Example 57, (4-(N-isopropyl-N-(4-(4-(2-piperidino-5-pyridinecarbonylamino)phenyl)-2-thiazolyl)amino)phenoxy)acetic acid], the melting point lay within 237 to 240 °C.

Take `O=C(O)c1ccc(C2(c3nc(-c4ccc(OCc5ccc(C6CCCCC6)cc5)cc4)cs3)CCOCC2)cc1` [Example 101, 4-(4-(4-(4-(4-cyclohexylbenzyloxy)phenyl)-2-thiazolyl)tetrahydropyran-4-yl)benzoic acid]: the melting point is 230 °C (dec.).

`O=C(O)c1ccc(Cc2nc(-c3ccc(OCc4ccc(C5CCCCC5)cc4)cc3)cs2)cc1` [Example 48, 4-(4-(4-(4-cyclohexylbenzyloxy)phenyl)-2-thiazolylmethyl)benzoic acid]: the melting point is 235 to 238 °C.

For the compound `CC(C)CSc1ccc(CN(C)c2ccc(-c3csc(N(C)Cc4ccc(C(=O)O)cc4)n3)cc2)cc1` [Example 245, 4-((N-(4-(4-(N-(4-isobutylsulfanylbenzyl)-N-methylamino)phenyl)-2-thiazolyl)-N-methylamino)methyl)benzoic acid], the melting point fell in the range of 132 to 134 °C.

`CC(=O)OCOC(=O)c1ccc(CN(C)c2nc(-c3ccc(OCc4ccc(C5CCCCC5)cc4)cc3)cs2)cc1` [Example 270, acetoxymethyl 4-((N-(4-(4-(4-cyclohexylbenzyloxy)phenyl)-2-thiazolyl)-N-methylamino)methyl)benzoate] returned a melting point of 100 to 104 °C.

On to `CC(C)(c1ccc(C(=O)O)cc1)c1nc(-c2ccc(OCc3ccc(-c4ccccc4)cc3)cc2)cs1` [Example 92, 4-(1-(4-(4-(4-biphenylylmethoxy)phenyl)-2-thiazolyl)-1-methylethyl)benzoic acid], for which the melting point is 230 °C (dec.).

For `O=C(O)c1ccc(CN(CC2CCCCC2)c2nc(-c3nc4ccc(OCCc5ccccc5)cc4o3)cs2)cc1` [Example 221, 4-((N-cyclohexylmethyl-N-(4-(6-phenethyloxy-2-benzooxazolyl)-2-thiazolyl)amino)methyl)benzoic acid], the melting point is 105 to 108 °C.

In turn, `CC(C)N(c1ccc(-c2nnn[nH]2)cc1)c1nc(-c2ccc(OCc3ccc(C4CCCCC4)cc3)cc2)cs1` [Example 78, N-(4-(4-(4-cyclohexylbenzyloxy)phenyl)-2-thiazolyl)-N-isopropyl-(4-(1H-tetrazol-5-yl)phenyl)amine] yielded a melting point of 215 to 216 °C.

`COc1ccc(OCc2ccc(C3CCCCC3)cc2)c(-c2csc(Nc3ccc(C(=O)O)cc3)n2)c1` [Example 157, 4-(4-(2-(4-cyclohexylbenzyloxy)-5-methoxyphenyl)-2-thiazolylamino)benzoic acid] had a melting point of 230 to 234 °C.

In turn, `CN(Cc1ccc([C@H]2CCC[C@@H](O)C2)cc1)c1ccc(-c2csc(N(C)Cc3ccc(C(=O)O)cc3)n2)cc1` (relative stereo) [Example 205, cis-4-((N-(4-(4-(N-(4-(3-hydroxycyclohexyl)benzyl)-N-methylamino)phenyl)-2-thiazolyl)-N-methylamino)methyl)benzoic acid] returned a melting point of 220 °C.

The compound `COc1ccc(OCc2ccccc2)c(-c2csc(Nc3ccc(C(=O)O)cc3OCc3ccccc3)n2)c1` [Example 156, 3-benzyloxy-4-(4-(2-benzyloxy-5-methoxyphenyl)-2-thiazolylamino)benzoic acid] yielded a melting point of 218 to 221 °C.

Turning to `CN(Cc1ccc(C(F)(F)F)cc1)c1ccc(-c2csc(N(C)c3ccc(C(=O)O)cc3)n2)cc1` [Example 137, 4-(N-methyl-N-(4-(4-(N-methyl-N-(4-trifluoromethylbenzyl)amino)phenyl)-2-thiazolyl)amino)benzoic acid], the melting point fell in the range of 218 to 220 °C.
